In ChEMBL document CHEMBL1165884, “Microwave-assisted synthesis and in-vitro anti-tumor activity of 1,3,4-triaryl-5-N-arylpyrazole-carboxamides” (Eur J Med Chem, 2010):
Converted amounts (≈) assume the structure as drawn.

Columns and labels:
Caco-2 = assay: Cytotoxicity against human Caco-2 cells after 48 hrs; conditions: Caco-2, 48 h
HEp-2 = assay: Cytotoxicity against human Hep2 cells after 48 hrs; conditions: HEp-2, 48 h

`Cc1ccc(NC(=O)c2c(-c3ccccc3)c(-c3ccccc3)nn2-c2ccccc2)cc1` was tested, and the IC50 (Caco-2) was 2.21 µg/mL (≈ 5.15 µM) and the IC50 (HEp-2) was 1.21 µg/mL (≈ 2.82 µM).
For `Cc1ccc(NC(=O)c2c(-c3ccc(Cl)cc3)c(-c3ccccc3)nn2-c2ccccc2)cc1`, the IC50 (Caco-2) was 1.54 µg/mL (≈ 3.32 µM) and the IC50 (HEp-2) was 0.81 µg/mL (≈ 1.75 µM).
`O=C(c1c(-c2ccc(Cl)cc2)c(-c2ccccc2)nn1-c1ccccc1)n1c(=S)[nH]c2ccccc21` gave an IC50 (Caco-2) of 3.29 µg/mL (≈ 6.49 µM) and an IC50 (HEp-2) of 1.54 µg/mL (≈ 3.04 µM).
For `O=C(Nc1ccccc1)c1c(-c2ccccc2)c(-c2ccccc2)nn1-c1ccccc1`, the IC50 (Caco-2) was 1.68 µg/mL (≈ 4.04 µM) and the IC50 (HEp-2) was 1.5 µg/mL (≈ 3.61 µM).
Work on `O=C(c1c(-c2ccccc2)c(-c2ccccc2)nn1-c1ccccc1)n1c(=S)[nH]c2ccccc21` yielded an IC50 (Caco-2) of 1.48 µg/mL (≈ 3.13 µM) and an IC50 (HEp-2) of 7.18 µg/mL (≈ 15.2 µM).
In the case of `O=C(Nc1ccccc1)c1c(-c2ccc(Cl)cc2)c(-c2ccccc2)nn1-c1ccccc1`, the IC50 (Caco-2) is reported as 1.74 µg/mL (≈ 3.87 µM) and the IC50 (HEp-2) is reported as 0.74 µg/mL (≈ 1.64 µM).
`Cc1ccc(NC(=O)c2c(-c3ccccc3)c(-c3ccc(Cl)cc3)nn2-c2ccccc2)cc1` showed an IC50 (Caco-2) of 0.67 µg/mL (≈ 1.44 µM) and an IC50 (HEp-2) of 1.21 µg/mL (≈ 2.61 µM).
With `COc1cccc2c1C(=O)c1c(O)c3c(c(O)c1C2=O)C[C@@](O)(C(=O)CO)C[C@@H]3O[C@H]1C[C@H](N)[C@H](O)[C@H](C)O1` [DOXORUBICIN] the IC50 (Caco-2) was 1 µg/mL (≈ 1.84 µM) and the IC50 (HEp-2) was 0.4 µg/mL (≈ 0.736 µM).
